{"source": "paper PMC8068288", "about": "“Novel Thiol Containing Hybrid Antioxidant-Nitric Oxide Donor Small Molecules for Treatment of Glaucoma” (Antioxidants, 2021)", "key": {"NTM-5 cells [1]": {"test_system": "NTM-5 cells", "test": "Superoxide scavenging ratio in NTM-5 cell supernatant (pyrogallol assay), with or without TBHP", "format": "cell-based, human", "conditions": "for AUC0-3h of superoxide scavenging ratio: NTM-5 cell supernatant, 18 h treatment, 0.1-1000 µM", "description": "The ROS scavenging ratio was determined using a chemical assay where WST-1 was used as superoxide scavenger produced by pyrogallol following a reported protocol. Briefly, the superoxide anion radical scavenging activity was determined spectrophotometrically by measuring the formation of WST-1 formazan at 450 nm. WST-1 (40 µL, 50 µM) was added to the compounds (or corresponding solution) in a final volume of 160 µL in 50 mM ammonium hydrogen carbonate buffer, 0.5 mM EDTA, pH 9.3. Reaction was launched by adding 40 µL 1 mM pyrogallol. The operation was based on the 96-well microplate, and measurement was performed at different time points under 37 °C by Cytation5 Microplate Reader. Baicalein (1 mM) was used as positive control. Compounds SA-2, SA-9, and SA-10 were used in concentrations ranging from 1 µM, 10 µM, 100 µM, and 1000 µM. The superoxide anion radical scavenging ratio % was calculated according to the following formula:Scavenging ratio (%) = A0 − (A1 − A2)/A0 × 100% […]\nThe experiments were repeated twice with four technical replicates.\nFigure 2 Superoxide scavenging ability of SA compounds in buffer and cells. (a) The % of superoxide scavenging response from 1 mM concentration of SA-2, SA-9, and SA-10 in pyrogallol (Pyr, 1 mM) induced superoxide induction assay at different time points in buffer. The AUC0–2.5 h for SA-2, SA-9, and SA-10 were 1592 ± 37.87, 1355 ± 42.62, and 2350 ± 69.26, respectively. (b) Comparison of the % ROS scavenging activity of SA-2, SA-9, and SA-10 with control after 15 min of treatment of pyrogallol. (c) The superoxide scavenging ratio (%) after 18 h treatment of 10 µM concentration of SA-2, SA-9, and SA-10 to NTM-5 cell supernatant using pyrogallol induced superoxide induction assay at different time points. (d) The superoxide scavenging ratio (%) of 10 µM concentration of SA-2, SA-9, and SA-10 in NTM-5 cell supernatant. The cells were previously treated with 5.5 mM of TBHP for 30 min followed by SA compounds and incubated for 18 h. Control is untreated cells. Three technical replicates were used for each experiment and all experiments were repeated 2 times. * p < 0.05, ** p < 0.005, *** p < 0.001, **** p < 0.0001, One-way ANOVA for (b), and two-way ANOVA for (c,d).\nFigure S1: Superoxide scavenging ability of SA compounds in buffer and cells. a) The % of superoxide scavenging response from different concentrations of SA-2, SA-9 and SA-10 in pyrogallol (1 µM, 10 µM, 100 µM and 1,000 µM) induced superoxide induction assay at 15 minutes time point in buffer solution. The […]\nsuperoxide scavenging ratio (%) after 18h treatment of different concentrations (0.1 µM, 1 µM, 10 µM, 100 µM and 1,000 µM) of SA-2, SA-9 and SA-10 to NTM-5 cell supernatant with or without TBHP (5.5 mM) using pyrogallol induced superoxide induction assay at 3h time point. Control is untreated cells. The cells were previously treated with 5.5 mM of TBHP for 30 minutes followed by SA compounds and TBHP and incubated for 18h. Control is untreated cells. e) The AUC0-3h for SA-2, SA-9 and SA-10 were 18902 ± 2714, […]\nfor each experiment and all experiments were repeated 2 times. N = 3.\n(1 picture or pasted object on this page, not shown here)"}, "[2]": {"test": "Ocular biodistribution after SA-9 and SA-9 NPs eye drop", "format": "in vivo", "conditions": "topical, 30 µL of 2% SA-9 solution, mouse, 1 h after single eye drop of 2% SA-9 solution"}, "NTM-5 cells [3]": {"test_system": "NTM-5 cells", "test": "In vitro cytoprotection assay against TBHP (MTT)", "format": "cell-based", "conditions": "Homo sapiens, TBHP 350 µM, read-out: EC50 of increase in cell viability (cytoprotection)", "description": "After 24 h of treatment, cell proliferation was measured using MTT assay. All the experiments are done in duplicate with four experimental replicates."}, "NTM-5 cells [4]": {"test_system": "NTM-5 cells", "test": "In vitro cell viability (MTT) assay", "conditions": "NTM-5 cells, 24 h, up to 1000 µM", "method": "NTM-5 cells (6000 cells/well) were seeded in 96-well plates to confluency. […] The cell viability and proliferation were measured using MTT assays (CellTiter 96® AQueous One Solution Cell Proliferation Assay, Promega Madison, WI, USA) following manufacturer instruction. The experiments were repeated twice with four technical replicates."}}, "note": "Read-outs that look alike come from different tables or passages of the source."}
{"smiles": "Cl.[NH-]c1c[n+](C2CCSCC2)no1", "note": "[SA-9, (3-(tetrahydro-2H-thiopyran-4-yl)-1,2,3-oxadiazol-3-ium-5-yl)amide hydrochloride]", "values": [{"measurement": "superoxide scavenging ability (ratio)", "setting": "NTM-5 cells [1]; 10 µM for 18 h, NTM-5 cells insulted with TBHP, TBHP alone 2.5%", "value": "20–25%"}, {"measurement": "fold prevention of the decrease in superoxide scavenging ability vs TBHP alone", "setting": "NTM-5 cells [1]; 10 µM for 18 h, TBHP-treated NTM-5 cells", "value": "~ 10 fold"}, {"measurement": "AUC0-3h of superoxide scavenging ratio", "setting": "NTM-5 cells [1]; with TBHP 5.5 mM", "value": "14120 ± 2023"}, {"measurement": "AUC0-3h of superoxide scavenging ratio", "setting": "NTM-5 cells [1]; without TBHP", "value": "21155 ± 1099"}, {"measurement": "concentration at 1 h", "setting": "[2]; choroid + sclera, read-out: concentration of SA-9 in choroid + sclera", "value": "28900 ± 2500", "unit": "ng/g"}, {"measurement": "concentration at 1 h", "setting": "[2]; lens, read-out: concentration of SA-9 in lens", "value": "20500 ± 8300", "unit": "ng/g"}, {"measurement": "concentration at 1 h", "setting": "[2]; optic nerve, read-out: concentration of SA-9 in ON", "value": "1300 ± 90", "unit": "ng/g"}, {"measurement": "concentration at 1 h", "setting": "[2]; retina, read-out: concentration of SA-9 in retina", "value": "8250 ± 10200", "unit": "ng/g"}, {"measurement": "EC50", "setting": "NTM-5 cells [3]", "value": 1000, "unit": "nM"}, {"measurement": "cytotoxicity", "setting": "NTM-5 cells [4]", "value": "no cytotoxicity"}]}
